{"source": "patent US10988459B2", "about": "(priority 2015, dated 2021)", "data": [{"target": "human RIP1 kinase domain (2-375) (Homo sapiens (Human), UniProt Q13546)", "sequence (Q13546 2-375)": "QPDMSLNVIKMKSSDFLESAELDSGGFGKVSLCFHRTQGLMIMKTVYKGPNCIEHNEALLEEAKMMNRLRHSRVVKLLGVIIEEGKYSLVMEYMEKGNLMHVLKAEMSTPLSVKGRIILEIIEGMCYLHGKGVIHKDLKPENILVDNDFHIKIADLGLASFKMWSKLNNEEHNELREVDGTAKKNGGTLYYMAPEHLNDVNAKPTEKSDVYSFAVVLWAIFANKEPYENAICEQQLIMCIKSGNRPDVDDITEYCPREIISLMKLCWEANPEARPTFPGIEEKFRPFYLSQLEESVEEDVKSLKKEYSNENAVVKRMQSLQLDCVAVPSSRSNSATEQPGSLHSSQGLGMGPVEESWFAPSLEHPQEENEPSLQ", "assay": "biochemical", "format": "biochemical", "settings": "tight-binding apparent inhibition constant; human RIP1 kinase domain (2-375) 50 nM, 50 uM ATP, 2 hours; read-out: Ki", "procedure,_shortened": "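Ki^app comes from Morrison tight-binding fits of fractional activity versus compound concentration. Activity was read as ADP production, via tracer displacement lowering fluorescence polarization (633 nm laser). Conditions: 2 h, 50 nM insect-cell-expressed enzyme, 50 uM ATP, 30 mM MgCl2, 1 mM DTT, 0.5% DMSO, pH 7.5 Hepes.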", "units": {"Ki": "nM"}, "values": [{"smiles": "CN1C(=O)[C@@H](NC(=O)c2ncn(CC3CCCCO3)n2)CCn2nc(C3CC3)cc21", "note": "(some centres unmarked) [Example 477]", "Ki": 290}, {"smiles": "CN1C(=O)[C@@H](NC(=O)c2ncn(CC3CCCOC3)n2)CCn2nc(C3CC3)cc21", "note": "(some centres unmarked) [Example 478]", "Ki": 290}, {"smiles": "Cc1cc2n(n1)CC[C@H](NC(=O)c1ncn(CC3CCOC3)n1)C(=O)N2C", "note": "(stereo partly drawn) [Example 479, N-(6S)-2,4-dimethyl-5-oxo-7,8-dihydro-6H-pyrazolo[1,5-a][1,3]diazepin-6-yl-1-(tetrahydrofuran-3-ylmethyl)-1,2,4-triazole-3-carboxamide]", "Ki": 2800}, {"smiles": "CN1C(=O)[C@@H](NC(=O)c2ncn(CC3CCOC3)n2)CCn2nc(C3CC3)cc21", "note": "(some centres unmarked) [Example 480]", "Ki": 2600}, {"smiles": "O=C(N[C@H]1COc2cc(F)cc(F)c2NC1=O)c1ncc2c(n1)C1(CCCC1)OC2", "note": "[Example 481, N-[(3S)-6,8-difluoro-4-oxo-3,5-dihydro-2H-1,5-benzoxazepin-3-yl]spiro[5H-furo[3,4-d]pyrimidine-7,1′-cyclopentane]-2-carboxamide]", "Ki": 4.9}, {"smiles": "CN1C(=O)[C@@H](NC(=O)c2ncc3c(n2)C2(CCCC2)OC3)COc2ccccc21", "note": "[Example 482]", "Ki": 5.7}, {"smiles": "Cc1cc2n(n1)CC[C@H](NC(=O)c1ncn(C[C@H]3C[C@H](C(F)(F)F)C3)n1)C(=O)N2C", "note": "[Example 483]", "Ki": 110}, {"smiles": "Cc1cc2n(n1)CC[C@H](NC(=O)c1nnc(Cc3ccc(F)cc3)[nH]1)C(=O)N2C", "note": "[Example 484, 5-[(4-fluorophenyl)methyl]-N-(6S)-2,4-dimethyl-5-oxo-7,8-dihydro-6H-pyrazolo[1,5-a][1,3]diazepin-6-yl-4H-1,2,4-triazole-3-carboxamide]", "Ki": 82}, {"smiles": "CN1C(=O)[C@@H](NC(=O)c2ncc3cnn(C4CCCC4)c3n2)COc2ccccc21", "note": "[Example 485, 1-cyclopentyl-N-[(3S)-5-methyl-4-oxo-2,3-dihydro-1,5-benzoxazepin-3-yl]pyrazolo[3,4-d]pyrimidine-6-carboxamide]", "Ki": 4.2}, {"smiles": "Cc1cc2n(n1)CC[C@H](NC(=O)c1ncc3c(n1)C(C)(CC(F)(F)F)OC3)C(=O)N2C", "note": "(stereo partly drawn) [Example 487, 7-methyl-N-[(6S)-2,4-dimethyl-5-oxo-7,8-dihydro-6H-pyrazolo[1,5-a][1,3]diazepin-6-yl]-7-(2,2,2-trifluoroethyl)-5H-furo[3,4-d]pyrimidine-2-carboxamide]", "Ki": 370}, {"smiles": "CCC(C)(O)c1ccnc(C(=O)N[C@H]2COc3ccccc3N(C)C2=O)c1", "note": "(stereo partly drawn) [Example 488, 4-(1-hydroxy-1-methyl-propyl)-N-[(3S)-5-methyl-4-oxo-2,3-dihydro-1,5-benzoxazepin-3-yl]pyridine-2-carboxamide]", "Ki": 1800}, {"smiles": "CN1C(=O)[C@@H](NC(=O)c2cc3c(cn2)COC32CCCOC2)COc2ccccc21", "note": "(stereo partly drawn) [Example 489, N-[(3S)-5-methyl-4-oxo-2,3-dihydro-1,5-benzoxazepin-3-yl]spiro[3H-furo[3,4-c]pyridine-1,3′-tetrahydropyran]-6-carboxamide]", "Ki": 94}, {"smiles": "Cc1nn2c(c1C)N(C)C(=O)[C@@H](NC(=O)c1nnc(Cc3cccc(F)c3F)[nH]1)CC2", "note": "[Example 490, 5-[(2,3-difluorophenyl)methyl]-N-(6S)-2,3,4-trimethyl-5-oxo-7,8-dihydro-6H-pyrazolo[1,5-a][1,3]diazepin-6-yl-4H-1,2,4-triazole-3-carboxamide]", "Ki": 40}, {"smiles": "Cc1cc2n(n1)CC[C@H](NC(=O)c1ncn(C[C@H]3C[C@@H](C(F)(F)F)C3)n1)C(=O)N2C", "note": "[Example 492]", "Ki": 180}, {"smiles": "CN1C(=O)[C@@H](NC(=O)c2ncn(C[C@H]3C[C@@H](C(F)(F)F)C3)n2)CCn2nccc21", "note": "[Example 493]", "Ki": 92}, {"smiles": "CN1C(=O)[C@@H](NC(=O)c2ncn(C[C@H]3C[C@H](C(F)(F)F)C3)n2)CCn2nccc21", "note": "[Example 494]", "Ki": 110}, {"smiles": "Cc1cc2n(n1)CC[C@H](NC(=O)c1ncn(CC3(C)CCCC3)n1)C(=O)N2C", "note": "[Example 495, 1-[(1-methylcyclopentyl)methyl]-N-(6S)-2,4-dimethyl-5-oxo-7,8-dihydro-6H-pyrazolo[1,5-a][1,3]diazepin-6-yl-1,2,4-triazole-3-carboxamide]", "Ki": 130}, {"smiles": "CN1C(=O)[C@@H](NC(=O)c2ncn(C[C@H]3C[C@@H](C)C3)n2)CCn2nccc21", "note": "[Example 496, N—((S)-4-methyl-5-oxo-5,6,7,8-tetrahydro-4H-pyrazolo[1,5-a][1,3]diazepin-6-yl)-1-(((1S,3R)-3-methylcyclobutyl)methyl)-1H-1,2,4-triazole-3-carboxamide]", "Ki": 52}, {"smiles": "CN1C(=O)[C@@H](NC(=O)c2ncn(C[C@H]3C[C@H](C)C3)n2)CCn2nccc21", "note": "[Example 497, N—((S)-4-methyl-5-oxo-5,6,7,8-tetrahydro-4H-pyrazolo[1,5-a][1,3]diazepin-6-yl)-1-(((1R,3S)-3-methylcyclobutyl)methyl)-1H-1,2,4-triazole-3-carboxamide]", "Ki": 41}, {"smiles": "Cc1cc2n(n1)CC[C@H](NC(=O)c1ncn(C[C@H]3C[C@H](C)C3)n1)C(=O)N2C", "note": "[Example 498, N—((S)-2,4-dimethyl-5-oxo-5,6,7,8-tetrahydro-4H-pyrazolo[1,5-a][1,3]diazepin-6-yl)-1-(((1S,3R)-3-methylcyclobutyl)methyl)-1H-1,2,4-triazole-3-carboxamide]", "Ki": 400}, {"smiles": "Cc1cc2n(n1)CC[C@H](NC(=O)c1ncn(C[C@H]3C[C@@H](C)C3)n1)C(=O)N2C", "note": "[Example 499, N—((S)-2,4-dimethyl-5-oxo-5,6,7,8-tetrahydro-4H-pyrazolo[1,5-a][1,3]diazepin-6-yl)-1-(((1R,3S)-3-methylcyclobutyl)methyl)-1H-1,2,4-triazole-3-carboxamide]", "Ki": 870}, {"smiles": "CC[C@H]1C[C@@H](Cn2cnc(C(=O)N[C@H]3CCn4nc(C)cc4N(C)C3=O)n2)C1", "note": "[Example 500, N—((S)-2,4-dimethyl-5-oxo-5,6,7,8-tetrahydro-4H-pyrazolo[1,5-a][1,3]diazepin-6-yl)-1-(((1R,3R)-3-ethylcyclobutyl)methyl)-1H-1,2,4-triazole-3-carboxamide]", "Ki": 36}, {"smiles": "CC[C@H]1C[C@H](Cn2cnc(C(=O)N[C@H]3CCn4nc(C)cc4N(C)C3=O)n2)C1", "note": "[Example 501, N—((S)-2,4-dimethyl-5-oxo-5,6,7,8-tetrahydro-4H-pyrazolo[1,5-a][1,3]diazepin-6-yl)-1-(((1S,3S)-3-ethylcyclobutyl)methyl)-1H-1,2,4-triazole-3-carboxamide]", "Ki": 67}, {"smiles": "CC[C@H]1C[C@@H](Cn2cnc(C(=O)N[C@H]3CCn4nccc4N(C)C3=O)n2)C1", "note": "[Example 502, N—((S)-4-methyl-5-oxo-5,6,7,8-tetrahydro-4H-pyrazolo[1,5-a][1,3]diazepin-6-yl)-1-(((1R,3R)-3-ethylcyclobutyl)methyl)-1H-1,2,4-triazole-3-carboxamide]", "Ki": 27}, {"smiles": "CC[C@H]1C[C@H](Cn2cnc(C(=O)N[C@H]3CCn4nccc4N(C)C3=O)n2)C1", "note": "[Example 503, N—((S)-4-methyl-5-oxo-5,6,7,8-tetrahydro-4H-pyrazolo[1,5-a][1,3]diazepin-6-yl)-1-(((1S,3 S)-3-ethylcyclobutyl)methyl)-1H-1,2,4-triazole-3-carboxamide]", "Ki": 23}, {"smiles": "Cc1ncn2c1N(C)C(=O)[C@H](NC(=O)c1ncn(Cc3cc(F)ccc3F)n1)CC2", "note": "[Example 504, 1-[(2,5-difluorophenyl)methyl]-N-(3R)-1,9-dimethyl-2-oxo-4,5-dihydro-3H-imidazo[1,5-a][1,3]diazepin-3-yl-1,2,4-triazole-3-carboxamide]", "Ki": 50}, {"smiles": "Cc1ncn2c1N(C)C(=O)[C@H](NC(=O)c1ncn(Cc3ccccc3)n1)CC2", "note": "[Example 505, 1-benzyl-N-(3R)-1,9-dimethyl-2-oxo-4,5-dihydro-3H-imidazo[1,5-a][1,3]diazepin-3-yl-1,2,4-triazole-3-carboxamide]", "Ki": 36}, {"smiles": "CN1C(=O)[C@@H](NC(=O)c2ncn(Cc3cc(F)ccc3F)n2)CCn2ccnc21", "note": "[Example 506, 1-[(2,5-difluorophenyl)methyl]-N-[(7S)-9-methyl-8-oxo-6,7-dihydro-5H-imidazo[1,2-a][1,3]diazepin-7-yl]-1,2,4-triazole-3-carboxamide]", "Ki": 19}, {"smiles": "CN1C(=O)[C@H](NC(=O)c2ncn(Cc3cc(F)ccc3F)n2)CCn2cncc21", "note": "[Example 507, 1-[(2,5-difluorophenyl)methyl]-N-[(3R)-1-methyl-2-oxo-4,5-dihydro-3H-imidazo[1,5-a][1,3]diazepin-3-yl]-1,2,4-triazole-3-carboxamide]", "Ki": 26}, {"smiles": "CN1C(=O)[C@@H](NC(=O)c2ncc3c(n2)C2(CCOC2)OC3)COc2ccccc21", "note": "(stereo partly drawn) [Example 508, N-[(3S)-5-methyl-4-oxo-2,3-dihydro-1,5-benzoxazepin-3-yl]spiro[5H-furo[3,4-d]pyrimidine-7,3′-tetrahydrofuran]-2-carboxamide]", "Ki": 90}, {"smiles": "CN1C(=O)[C@@H](NC(=O)c2nccc(C3(O)CCCC3)n2)COc2ccccc21", "note": "[Example 509, 4-(1-hydroxycyclopentyl)-N-[(3S)-5-methyl-4-oxo-2,3-dihydro-1,5-benzoxazepin-3-yl]pyrimidine-2-carboxamide]", "Ki": 440}, {"smiles": "CN1C(=O)[C@@H](NC(=O)c2ncc3c(n2)C2(CCOCC2)OC3)COc2ccccc21", "note": "[Example 510]", "Ki": 330}, {"smiles": "CN1C(=O)[C@@H](NC(=O)c2ncc3c(n2)C2(CCCOC2)OC3)COc2ccccc21", "note": "(stereo partly drawn) [Example 511, N-[(3S)-5-methyl-4-oxo-2,3-dihydro-1,5-benzoxazepin-3-yl]spiro[5H-furo[3,4-d]pyrimidine-7,3′-tetrahydropyran]-2-carboxamide]", "Ki": 83}, {"smiles": "Cc1cc2n(n1)CC[C@H](NC(=O)c1ncc3c(n1)C1(CCOCC1)OC3)C(=O)N2C", "note": "[Example 512, N-[(6S)-2,4-dimethyl-5-oxo-7,8-dihydro-6H-pyrazolo[1,5-a][1,3]diazepin-6-yl]spiro[5H-furo[3,4-d]pyrimidine-7,4′-tetrahydropyran]-2-carboxamide]", "Ki": 840}, {"smiles": "Cc1cc2n(n1)CC[C@H](NC(=O)c1nnc(Cc3cccc(F)c3F)[nH]1)C(=O)N2C", "note": "[Example 513, 5-[(2,3-difluorophenyl)methyl]-N-(6S)-2,4-dimethyl-5-oxo-7,8-dihydro-6H-pyrazolo[1,5-a][1,3]diazepin-6-yl-4H-1,2,4-triazole-3-carboxamide]", "Ki": 29}]}]}
